Counter-ions that a name gives are not always drawn.

This assay has as its target T1, Human IP6K1 (Homo sapiens, UniProt Q92551).
T1 construct: GST (N, cleaved yes); made in house; host or cells: C43 E. coli, pGEX-6P-2
As to the kind of experiment: IP6K1 high-throughput screen of the Sigma LOPAC (ADP-Glo Max, single point).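 Also: final compound concentration 10µM in 5% DMSO.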 The class given is biochemical.

Where [1] appears, read: LOPAC single-point screen, ADP-Glo Max raw signal per well.
Where [2] appears, read: LOPAC single-point screen, Z-score from raw signal with plate average and StDev.
Where [3] appears, read: LOPAC single-point screen, ADP-Glo Max luminescence raw signal per well.
Setting [4] is: LOPAC single-point screen, Z-score relative to plate average and StDev.
Where [5] appears, read: LOPAC single-point screen, Z-score against plate average and StDev.
[6] abbreviates: LOPAC single-point screen, Z-score from plate average and StDev.
Setting [7] is: Sigma LOPAC single-point screen, ADP-Glo Max raw signal per well.
Where [8] appears, read: Sigma LOPAC single-point screen, Z-score from plate average and StDev.

T1 sequence (Q92551 whole entry): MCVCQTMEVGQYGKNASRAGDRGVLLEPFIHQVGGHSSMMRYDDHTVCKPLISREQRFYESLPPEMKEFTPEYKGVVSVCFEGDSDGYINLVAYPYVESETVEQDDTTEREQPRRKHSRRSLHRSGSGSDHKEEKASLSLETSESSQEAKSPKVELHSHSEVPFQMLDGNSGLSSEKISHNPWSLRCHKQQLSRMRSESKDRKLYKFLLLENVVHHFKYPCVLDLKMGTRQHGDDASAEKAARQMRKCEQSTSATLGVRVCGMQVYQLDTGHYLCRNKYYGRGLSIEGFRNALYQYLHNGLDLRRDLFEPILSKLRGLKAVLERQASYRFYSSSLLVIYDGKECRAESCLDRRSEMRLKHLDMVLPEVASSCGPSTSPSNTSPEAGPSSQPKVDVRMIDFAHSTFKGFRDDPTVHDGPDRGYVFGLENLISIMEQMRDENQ

As for `Cn1cc(C(=O)OCC2CCN(CCNS(C)(=O)=O)CC2)c2ccccc21` [GR 113808], the “Raw Signal” value under setting [1] was found to be 56278. For the same compound, the Z-score under setting [2] was -0.288.

Consider `COc1[nH]c2ccc(F)cc2c1C(=O)OCC1CCN(CCNS(C)(=O)=O)CC1.NS(=O)(=O)O` [GR 125487 sulfamate salt], for which the “Raw Signal” value under setting [3] is listed as 51618. In addition, the Z-score under setting [4] is on record as -0.7208.

For `COc1ccc(NC(=O)c2ccc(-c3ccc(-c4noc(C)n4)cc3C)cc2)cc1N1CCN(C)CC1.Cl` [GR 127935 hydrochloride], the “Raw Signal” value under setting [3] turned out to be 51529. For the same compound, the Z-score under setting [4] is given as -0.4813.

As to `COC(=O)N1CCN(C(=O)Cc2ccc(Cl)c(Cl)c2)C(CN2CCCC2)C1.O=C(O)/C=C/C(=O)O` (stereo not shown) [GR-89696 fumarate], the “Raw Signal” value under setting [1] was 54440. This compound displayed a Z-score under setting [2] of -0.1477.

On to `CN(CCOc1ccc(C[C@H](Nc2ccccc2C(=O)c2ccccc2)C(=O)O)cc1)c1ccccn1` [GW1929], for which, under setting [1], the “Raw Signal” value turned out to be 55887. The compound also came in with a Z-score under setting [5] of 0.1462.

On to `CN(C)c1cc2c(Nc3ccc4c(cnn4Cc4ccccc4)c3)ncnc2cn1` [GW2974], for which, under setting [1], the “Raw Signal” value is 53289. Moreover, the Z-score under setting [2] is recorded as -0.3814.

With `O=C1Nc2ccc(I)cc2/C1=C/c1cc(Br)c(O)c(Br)c1` [GW5074], under setting [3], the “Raw Signal” value is reported as 51521. Also, the Z-score under setting [4] is recorded as -0.7405.

In the case of `CC(C)(Sc1ccc(CCN(CCCCC2CCCCC2)C(=O)NC2CCCCC2)cc1)C(=O)O` [GW7647], under setting [3], the “Raw Signal” value was found to be 52814. The compound further showed a Z-score under setting [4] of -0.4779.

`O=C(Nc1ccccc1)c1cc([N+](=O)[O-])ccc1Cl` [GW9662]: the “Raw Signal” value under setting [1] is listed as 52726. Moreover, under setting [2], the Z-score is -0.2802.

In the case of `CC1=NN=C(c2ccc(N)cc2)c2cc3c(cc2C1)OCO3.Cl` [GYKI 52466 hydrochloride], the “Raw Signal” value under setting [3] is on record as 61943. Moreover, the Z-score under setting [6] turned out to be 1.376.

As for `CC1Cc2cc3c(cc2C(c2ccc(N)cc2)=NN1)OCO3` (stereo not shown) [GYKI 52895], the “Raw Signal” value under setting [3] turned out to be 63898. Moreover, the Z-score under setting [6] was found to be 1.773.

Turning to `Cl.NC1C=CC=C(C(=O)O)C1` (stereo not shown) [Gabaculine hydrochloride], the “Raw Signal” value under setting [7] turned out to be 64092. The compound further returned a Z-score under setting [8] of 1.088.

For the compound `NCC1(CC(=O)O)CCCCC1` [Gabapentin], the “Raw Signal” value under setting [3] was found to be 51688. The compound further yielded a Z-score under setting [4] of -0.7066.

`CC[N+](CC)(CC)CCOc1cccc(OCC[N+](CC)(CC)CC)c1OCC[N+](CC)(CC)CC` [Gallamine triethiodide]: the “Raw Signal” value under setting [1] is 56632. The Z-score under setting [5] is recorded as 0.2975.

For `Nc1nc(O)c2ncn(COC(CO)CO)c2n1` [Ganciclovir], the “Raw Signal” value under setting [7] is recorded as 57228. This compound displayed a Z-score under setting [8] of 0.4186.

As for `O=c1c(-c2ccc(O)cc2)coc2cc(O)cc(O)c12` [Genistein], the “Raw Signal” value under setting [1] came out at 53223. This compound also registered a Z-score under setting [2] of -0.3948.

As to `COc1ccc(Cl)cc1C(=O)NCCc1ccc(S(=O)(=O)NC(=O)NC2CCCCC2)cc1` [Glibenclamide], the “Raw Signal” value under setting [7] worked out at 57524. Besides, the Z-score under setting [8] stood at 0.4787.

As to `Cc1cnc(C(=O)NCCc2ccc(S(=O)(=O)NC(=O)NC3CCCCC3)cc2)cn1` [Glipizide], the “Raw Signal” value under setting [7] turned out to be 60018. The compound further had a Z-score under setting [8] of 0.9852.

For `N=C(N)N/N=C/c1c(Cl)cccc1Cl` [Guanabenz acetate], the “Raw Signal” value under setting [1] stood at 54722. Besides, the Z-score under setting [5] is given as -0.09038.

For the compound `N=C(N)NC(=O)Cc1c(Cl)cccc1Cl` [Guanfacine hydrochloride], under setting [1], the “Raw Signal” value is recorded as 54831. Besides, under setting [5], the Z-score is given as -0.06825.

For `Br.Br.NC(N)=NCCSSCCN=C(N)N` [Guanidinoethyl disulfide dihydrobromide], the “Raw Signal” value under setting [7] was determined as 61778. Further, under setting [8], the Z-score is given as 1.343.

In the case of `O=C(O)C1=CCCNC1` [Guvacine hydrochloride], the “Raw Signal” value under setting [1] was 56288. For the same compound, the Z-score under setting [5] was 0.2277.

With `CC1CNCCN1S(=O)(=O)c1cccc2cnccc12.Cl.Cl` (stereo not shown) [H-7 dihydrochloride], the “Raw Signal” value under setting [3] was 51716. Moreover, the Z-score under setting [4] was -0.7009.

On to `CNCCNS(=O)(=O)c1cccc2cnccc12.Cl.Cl` [H-8 dihydrochloride], for which, under setting [1], the “Raw Signal” value is recorded as 53425. Further, the Z-score under setting [2] is on record as -0.1627.

Take `Cl.Cl.NCCNS(=O)(=O)c1cccc2cnccc12` [H-9 dihydrochloride]: the “Raw Signal” value under setting [7] came out at 64375. Under setting [8], this compound returned a Z-score of 1.138.

As to `O=S(=O)(NCCNC/C=C/c1ccc(Br)cc1)c1cccc2cnccc12` [H-89], the “Raw Signal” value under setting [3] turned out to be 53512. Under setting [4], the Z-score is listed as -0.7752.

Regarding `O=S(=O)(c1cccc2cnccc12)N1CCNCC1` [HA-100], the “Raw Signal” value under setting [7] amounted to 57010. Moreover, the Z-score under setting [8] is 0.3743.

On to `Cl.NC(N)=NCCNS(=O)(=O)c1cccc2cnccc12` [HA-1004 hydrochloride], for which, under setting [3], the “Raw Signal” value came to 50838. This compound had a Z-score under setting [4] of -0.8792.

Regarding `CCCCC#Cc1nc(N)c2ncn([C@@H]3O[C@H](C(=O)NCC)[C@@H](O)[C@H]3O)c2n1` [HE-NECA], the “Raw Signal” value under setting [7] worked out at 57534. Under setting [8], this compound showed a Z-score of 0.4807.

Regarding `O=C(CCCN1CCC(O)(c2ccc(Cl)cc2)CC1)c1ccc(F)cc1` [Haloperidol], the “Raw Signal” value under setting [3] came out at 51923. The compound further had a Z-score under setting [4] of -0.6588.

As to `Cc1nccc2c1[nH]c1ccccc12` [Harmane], the “Raw Signal” value under setting [3] stood at 51802. Under setting [4], the Z-score is given as -0.6834.

Turning to `C[N+]1(C)CCOC(O)(c2ccc(-c3ccc(C4(O)C[N+](C)(C)CCO4)cc3)cc2)C1` (stereo not shown) [Hemicholinium-3], under setting [2], the Z-score is reported as -0.115.

For the compound `C[N+](C)(C)CCCCCC[N+](C)(C)C` [Hexamethonium bromide], the “Raw Signal” value under setting [1] is 55496. The compound further gave a Z-score under setting [5] of 0.06681.

As to `C[N+](C)(C)CCCCCC[N+](C)(C)C.[Cl-].[Cl-]` [Hexamethonium dichloride], the “Raw Signal” value under setting [7] was determined as 57643. The Z-score under setting [8] is reported as 0.5028.

In the case of `O=c1cc(O)cc(/C=C/c2ccc(O)c(O)c2)o1` [Hispidin], the “Raw Signal” value under setting [3] is on record as 48484. Under setting [4], this compound showed a Z-score of -1.357.

On to `NCCc1c[nH]cn1` [Histamine dihydrochloride], for which the “Raw Signal” value under setting [3] amounted to 51759. Also, the Z-score under setting [4] is listed as -0.6921.

Regarding `NNc1nncc2ccccc12` [Hydralazine hydrochloride], the “Raw Signal” value under setting [1] worked out at 53853. Moreover, under setting [2], the Z-score is listed as -0.2669.

`NS(=O)(=O)c1cc2c(cc1Cl)NCNS2(=O)=O` [Hydrochlorothiazide]: under setting [1], the “Raw Signal” value was found to be 56632. Under setting [5], this compound came in with a Z-score of 0.2975.

Regarding `C[C@]12CCC(=O)C=C1CC[C@@H]1[C@@H]2[C@@H](O)C[C@@]2(C)[C@H]1CC[C@]2(O)C(=O)COC(=O)CCC(=O)[O-].[Na+]` [Hydrocortisone 21-hemisuccinate sodium], the “Raw Signal” value under setting [7] came to 57689. Under setting [8], this compound showed a Z-score of 0.5122.

Take `C[C@]12CCC(=O)C=C1CC[C@@H]1[C@@H]2[C@@H](O)C[C@@]2(C)[C@H]1CC[C@]2(O)C(=O)CO` [Hydrocortisone]: the “Raw Signal” value under setting [1] is 54144. The compound also gave a Z-score under setting [2] of -0.2078.

Regarding `Oc1ccc(O)cc1` [Hydroquinone], the “Raw Signal” value under setting [7] turned out to be 59753. Under setting [8], this compound showed a Z-score of 0.9314.

`Cl.NO` [Hydroxylamine hydrochloride]: the “Raw Signal” value under setting [3] was determined as 61813. This compound also displayed a Z-score under setting [6] of 1.35.

For the compound `Nc1c2c(nc3ccccc13)CCCC2O.O=C(O)/C=C\C(=O)O` (stereo not shown) [Hydroxytacrine maleate], under setting [1], the “Raw Signal” value came to 53095. The Z-score under setting [2] is reported as -0.4208.

In the case of `NC(=O)NO` [Hydroxyurea], the “Raw Signal” value under setting [3] is given as 51854. In addition, under setting [4], the Z-score is given as -0.6728.

`NCCS(=O)O` [Hypotaurine]: the “Raw Signal” value under setting [1] was determined as 53524. The compound also yielded a Z-score under setting [2] of -0.3337.

As for `COc1cc(/C=C(\C#N)C(=O)c2ccc(O)c(O)c2)cc(I)c1O` [I-OMe-Tyrphostin AG 538], the “Raw Signal” value under setting [1] stood at 53763. Besides, under setting [2], the Z-score was -0.4392.

Take `CNC(=O)[C@H]1O[C@@H](n2cnc3c(NCc4cccc(I)c4)ncnc32)[C@H](O)[C@@H]1O` [IB-MECA]: the “Raw Signal” value under setting [3] was determined as 49701. The same compound came in with a Z-score under setting [4] of -0.7885.

In the case of `COc1cc(OC)c(C=C2C(O)=Nc3ccccc32)c(OC)c1` [IC 261], the “Raw Signal” value under setting [1] was 54461. Further, the Z-score under setting [2] is given as -0.3036.

As for `Cc1ccc(OCC(O)C(C)NC(C)C)c2c1CCC2.Cl` (stereo not shown) [ICI 118,551 hydrochloride], the “Raw Signal” value under setting [7] came to 57174. This compound also returned a Z-score under setting [8] of 0.4672.

As for `CN(C(=O)Cc1ccc(Cl)c(Cl)c1)C(CN1CCCC1)c1cccc(OCC(=O)O)c1.Cl` (stereo not shown) [ICI 204,448 hydrochloride], the “Raw Signal” value under setting [1] is on record as 53600. The compound further showed a Z-score under setting [2] of -0.1333.

Consider `Br.C[N+](C)(C)CCCCCNCC12CC3CC(CC(C3)C1)C2.[Br-]` [IEM-1460], for which the “Raw Signal” value under setting [1] turned out to be 53178. In addition, the Z-score under setting [2] is listed as -0.404.

With `CCCC(=O)NCCc1c2n(c3ccc(OC)cc13)Cc1ccccc1-2` [IIK7], under setting [1], the “Raw Signal” value was found to be 53632. Further, under setting [2], the Z-score was -0.128.

Consider `Cl.Fc1ccc(CN(C2=NCCN2)c2c(Cl)cccc2Cl)cc1` [IMID-4F hydrochloride], for which, under setting [7], the “Raw Signal” value came out at 60859. This compound also came in with a Z-score under setting [8] of 1.156.

As to `CC(C)C(=O)c1c(C(C)C)nn2ccccc12` [Ibudilast], the “Raw Signal” value under setting [1] is on record as 53701. For the same compound, the Z-score under setting [2] was -0.2977.

With `O=C1NC(c2cccc([N+](=O)[O-])c2)=CCN1c1ccccc1O` [Icilin], the “Raw Signal” value under setting [3] is on record as 49844. In addition, the Z-score under setting [4] was -1.081.
